Results published in patent US20160003808A1, “MOLECULAR TARGETS AND COMPOUNDS, AND METHODS TO IDENTIFY THE SAME, USEFUL IN THE TREATMENT OF DISEASES ASSOCIATED WITH EPITHELIAL MESENCHYMAL TRANSITION” (GALAPAGOS NV, priority 2013, published 2016).

Legend:
[1] = test system: Fibronectin (FN); assay: EMT on target screen, FN read-out; type: cell-based, human; settings: for OT FN Screen Z-score 2: as E11, duplicate 2; for Both (shRNA is a hit again in both OT assays, Yes/No): on target validation, Table 16; for OT FN Screen Z-score 1: robust Z-score, HBEC donor Br299, duplicate 1, cut-off Z ≦ −1.25
[2] = test system: HBEC
[3] = test system: MMP10; assay: EMT on target screen, MMP10 read-out; type: cell-based, human; settings: for OT MMP10 Screen Z-score 2: as E13, duplicate 2; for OT MMP10 Screen Z-score 1: robust Z-score, HBEC donor Br299, duplicate 1, cut-off Z ≦ −1.25

Row | Substance | OT FN Screen Z-score 2 [1] | Both (shRNA is a hit again in both OT assays, Yes/No) [1] | OT FN Screen Z-score 1 [1] | OT CTB assay Z-score 1 [2] | OT CTB assay Z-score 2 [2] | OT MMP10 Screen Z-score 2 [3] | OT MMP10 Screen Z-score 1 [3]
1 | 62 (CAGATTCCATCTGATGGCC; chemistry not given here) [compound 62] | -5.21 | yes | -4.99 | -3.19 | -2.25 | -2.79 | -2.75
2 | 74 (AGACCTGGTCTACATCGAC; chemistry not given here) [compound 74] | -4.17 | no | -2.80 | -8.40 | -6.74 | -2.12 | -2.88
3 | 68 (CATCAGCTTCCTGCTGGGC; chemistry not given here) [compound 68] | -5.66 | yes | -4.29 | -2.64 | -2.21 | -0.35 | -1.18
4 | 71 (CACGGCTCTCCTATTTGTC; chemistry not given here) [compound 71] | -1.64 | no | -1.73 | -5.58 | -4.56 | 0.95 | 0.88
5 | 49 (GAGGATGCCATTAAGTATT; chemistry not given here) [compound 49] | -1.84 | no | -1.75 | -0.78 | -0.88 | 0.87 | 0.57
6 | 75 (TCGCTAGGTATGAATAACC; chemistry not given here) [compound 75] | -2.58 | yes | -2.04 | -0.46 | -2.90 | -0.75 | 0.15
7 | 73 (GAAACCATCCTTTCTTGAA; chemistry not given here) [compound 73] | -2.91 | no | -2.09 | -1.31 | -2.09 | 0.06 | -0.19
8 | 58 (GATCCCAGCAGTTATAACA; chemistry not given here) [compound 58] | -6.55 | no | -2.47 | -4.03 | -2.02 | -3.41 | -3.06
9 | 64 (GTCCAACAGAAGTACGTGC; chemistry not given here) [compound 64] | -2.52 | no | -3.09 | 1.00 | -1.33 | 1.09 | -0.07
10 | 53 (TCAGCTGGGCGCTATGTTC; chemistry not given here) [compound 53] | -2.98 | no | -3.01 | -3.97 | -4.28 | 0.45 | -0.41
11 | 67 (CAAGAGCGATGCCTATTAC; chemistry not given here) [compound 67] | -2.65 | no | -3.19 | -3.77 | -3.83 | 0.32 | 1.39
12 | 65 (GGCCATGATTGAGAAACTC; chemistry not given here) [compound 65] | -4.03 | no | -4.35 | 1.09 | 1.89 | -3.44 | -5.08
13 | 48 (GGATGGAGTTGGGAATCAC; chemistry not given here) [compound 48] | -3.44 | yes | -3.28 | -1.14 | -3.01 | -2.43 | -2.26
